Laboratory results taken from patent US20250163104A1, “MACROCYCLIC IMMUNOMODULATORS” (priority 2021, published 2025).
Where a SMILES comes first, the peptide text is derived from it. Bridges are numbered along the chain shown (N, C = ends). [ ]: non-standard residue; d: D form. The star is where a group is joined. Phe(4-COOH) = N[C@@H](Cc1ccc(C(=O)O)cc1)C(=O)O; Bip = N[C@@H](Cc1ccc(-c2ccccc2)cc1)C(=O)O; Phe(3-Me) = Cc1cccc(C[C@H](N)C(=O)O)c1; aIle = CC[C@@H](C)[C@H](N)C(=O)O; 4Pal = N[C@@H](Cc1ccncc1)C(=O)O; Cha = N[C@@H](CC1CCCCC1)C(=O)O; Cit = NC(=O)NCCC[C@H](N)C(=O)O; dCha = N[C@H](CC1CCCCC1)C(=O)O; Carboxymethyl = O=C(O)C*; Orn = NCCC[C@H](N)C(=O)O; Dab = NCC[C@H](N)C(=O)O; Dap = NC[C@H](N)C(=O)O

Target: T1, human PD-1 / PD-L1-Ig binding on Jurkat cell line over-expressing human PD-1 (Jurkat-PD-1) (Homo sapiens, UniProt Q15116)
T1 construct: expressed in transfected cells; host or cells: Jurkat
T1 sequence (Q15116 25-288): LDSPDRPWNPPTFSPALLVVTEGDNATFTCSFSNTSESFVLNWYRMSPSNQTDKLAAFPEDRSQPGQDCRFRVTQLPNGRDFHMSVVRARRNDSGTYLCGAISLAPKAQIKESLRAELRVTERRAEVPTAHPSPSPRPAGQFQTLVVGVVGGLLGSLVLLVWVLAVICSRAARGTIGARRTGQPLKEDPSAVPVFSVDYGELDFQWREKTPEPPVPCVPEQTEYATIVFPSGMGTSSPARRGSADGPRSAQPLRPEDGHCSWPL
Experiment: Jurkat-PD-1 Cell Binding High-Content Screening Assay (CBA)
Format: cell-based
Details: Jurkat-PD-1 cells, PE-labeled PD-L1-Ig 20 nM final; read-out: Jurkat HPD1_PDL1 IC50
Method in brief: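 Read-out: high-content imaging of PE-tagged PD-L1-Ig bound to Jurkat cells overexpressing human PD-1, after fixation with 4% paraformaldehyde and Hoechst 33342 nuclear staining. Ligand was used at 20 nM final for 1 hour, after a 2 h compound exposure at 37° C in serum-containing DMEM.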

SMILES	IC50 [nM]
CC(C)[C@@H]1NC(=O)[C@H](Cc2c[nH]c3ccccc23)NC(=O)[C@H](CC(=O)O)NC(=O)[C@H](Cc2ccc(OCC(=O)O)cc2)NC(=O)[C@H](Cc2ccc(OCC(=O)O)cc2)NC(=O)CSC[C@@H](C(=O)N[C@@H](C)C(N)=O)NC(=O)[C@H]([C@@H](C)O)NC(=O)[C@H](C(C)C)NC(=O)[C@H](CC2CCCCC2)NC(=O)[C@H](CCN)NC(=O)[C@@H](CC2CCCCC2)NC(=O)[C@H](CCCN)NC(=O)[C@H](CCCNC(N)=O)NC(=O)[C@H](Cc2ccc(-c3ccccc3)cc2)NC1=O [Compound 1641] ({CH2CO}-Y(Carboxymethyl)Y(Carboxymethyl)DWV[Bip][Cit][Orn][dCha][Dab][Cha]VTCA-NH2; thioether N-14)	37.1
CC(C)[C@@H]1NC(=O)[C@H](Cc2c[nH]c3ccccc23)NC(=O)[C@H](CC(=O)O)NC(=O)[C@H](Cc2ccc(OCC(=O)O)cc2)NC(=O)[C@H](CN)NC(=O)CSC[C@@H](C(=O)N[C@@H](C)C(N)=O)NC(=O)[C@H]([C@@H](C)O)NC(=O)[C@H](C(C)C)NC(=O)[C@H](CC2CCCCC2)NC(=O)[C@H](CCN)NC(=O)[C@@H](CC2CCCCC2)NC(=O)[C@H](CCCN)NC(=O)[C@H](CCCNC(N)=O)NC(=O)[C@H](Cc2ccc(-c3ccccc3)cc2)NC1=O [Compound 1643] ({CH2CO}-[Dap]Y(Carboxymethyl)DWV[Bip][Cit][Orn][dCha][Dab][Cha]VTCA-NH2; thioether N-14)	14.5
CC(C)[C@@H]1NC(=O)[C@H](Cc2c[nH]c3ccccc23)NC(=O)[C@H](CC(=O)O)NC(=O)[C@H](Cc2ccc(OCC(=O)O)cc2)NC(=O)[C@H](Cc2ccncc2)NC(=O)CSC[C@@H](C(=O)N[C@@H](C)C(N)=O)NC(=O)[C@H]([C@@H](C)O)NC(=O)[C@H](C(C)C)NC(=O)[C@H](CC2CCCCC2)NC(=O)[C@H](CCN)NC(=O)[C@@H](CC2CCCCC2)NC(=O)[C@H](CCCN)NC(=O)[C@H](CCCNC(N)=O)NC(=O)[C@H](Cc2ccc(-c3ccccc3)cc2)NC1=O [Compound 1644] ({CH2CO}-[4Pal]Y(Carboxymethyl)DWV[Bip][Cit][Orn][dCha][Dab][Cha]VTCA-NH2; thioether N-14)	16.7
CC(C)[C@@H]1NC(=O)[C@H](Cc2c[nH]c3ccccc23)NC(=O)[C@H](CC(=O)O)NC(=O)[C@H](Cc2ccncc2)NC(=O)[C@H](CN)NC(=O)CSC[C@@H](C(=O)N[C@@H](C)C(N)=O)NC(=O)[C@H]([C@@H](C)O)NC(=O)[C@H](C(C)C)NC(=O)[C@H](CC2CCCCC2)NC(=O)[C@H](CCN)NC(=O)[C@@H](CC2CCCCC2)NC(=O)[C@H](CCCN)NC(=O)[C@H](CCCNC(N)=O)NC(=O)[C@H](Cc2ccc(-c3ccccc3)cc2)NC1=O [Compound 1646] ({CH2CO}-[Dap][4Pal]DWV[Bip][Cit][Orn][dCha][Dab][Cha]VTCA-NH2; thioether N-14)	28.1
CC(C)[C@@H]1NC(=O)[C@H](Cc2c[nH]c3ccccc23)NC(=O)[C@H](CC(=O)O)NC(=O)[C@H](Cc2ccc(O)cc2)NC(=O)[C@H](CC(N)=O)NC(=O)CSC[C@@H](C(=O)N[C@@H](C)C(N)=O)NC(=O)[C@H]([C@@H](C)O)NC(=O)[C@H](C(C)C)NC(=O)[C@H](CC2CCCCC2)NC(=O)[C@H](CCN)NC(=O)[C@@H](CC2CCCCC2)NC(=O)[C@H](CCCN)NC(=O)[C@H](CCCNC(N)=O)NC(=O)[C@H](Cc2ccc(-c3ccccc3)cc2)NC1=O [Compound 1647] ({CH2CO}-NYDWV[Bip][Cit][Orn][dCha][Dab][Cha]VTCA-NH2; thioether N-14)	50.9
Cc1cccc(C[C@@H]2NC(=O)[C@H](CC(=O)O)NC(=O)[C@H](Cc3ccc(O)cc3)NC(=O)[C@H](CC(N)=O)NC(=O)CSC[C@@H](C(N)=O)NC(=O)[C@H]([C@@H](C)O)NC(=O)[C@H](C(C)C)NC(=O)[C@H](CC(C)C)NC(=O)[C@H](CCN)NC(=O)[C@@H](CC(C)C)NC(=O)[C@H](CCCN)NC(=O)[C@H](C(C)C)NC(=O)[C@H](Cc3ccc(-c4ccccc4)cc3)NC(=O)[C@H](C(C)C)NC2=O)c1 [Compound 1648] ({CH2CO}-NYD[Phe(3-Me)]V[Bip]V[Orn][dL][Dab]LVTC-NH2; thioether N-14)	97
Cc1cccc(C[C@@H]2NC(=O)[C@H](CC(=O)O)NC(=O)[C@H](Cc3ccc(OCC(=O)O)cc3)NC(=O)[C@H](Cc3ccc(OCC(=O)O)cc3)NC(=O)CSC[C@@H](C(=O)NCC(N)=O)NC(=O)[C@H](CO)NC(=O)[C@H](C(C)C)NC(=O)[C@H](CC3CCCCC3)NC(=O)[C@H](CCN)NC(=O)[C@@H](CC(C)C)NC(=O)[C@H](CCCN)NC(=O)[C@H](C(C)C)NC(=O)[C@H](Cc3ccc(-c4ccccc4)cc3)NC(=O)[C@H](CC(C)C)NC2=O)c1 [Compound 1650] ({CH2CO}-Y(Carboxymethyl)Y(Carboxymethyl)D[Phe(3-Me)]L[Bip]V[Orn][dL][Dab][Cha]VSCG-NH2; thioether N-14)	24.2
CC(C)C[C@H]1NC(=O)[C@H](CN)NC(=O)[C@H](C(C)C)NC(=O)[C@H](Cc2ccc(-c3ccccc3)cc2)NC(=O)[C@H](C(C)C)NC(=O)[C@H](Cc2c[nH]c3ccccc23)NC(=O)[C@H](CC(=O)O)NC(=O)[C@H](Cc2ccncc2)NC(=O)[C@H](CN)NC(=O)CSC[C@@H](C(=O)NCC(N)=O)NC(=O)[C@H](CO)NC(=O)[C@H](C(C)C)NC(=O)[C@H](CC2CCCCC2)NC(=O)[C@H](CC(N)=O)NC1=O [Compound 1651] ({CH2CO}-[Dap][4Pal]DWV[Bip]V[Dap][dL]N[Cha]VSCG-NH2; thioether N-14)	17.4
CC[C@@H](C)[C@@H]1NC(=O)[C@H](Cc2ccc(-c3ccccc3)cc2)NC(=O)[C@H](CC(C)C)NC(=O)[C@H](Cc2cccc(C)c2)NC(=O)[C@H](CC(=O)O)NC(=O)[C@H](Cc2ccc(OCC(=O)O)cc2)NC(=O)[C@H](Cc2ccc(OCC(=O)O)cc2)NC(=O)CSC[C@@H](C(N)=O)NC(=O)[C@H](CO)NC(=O)[C@H](C(C)C)NC(=O)[C@H](CC(C)C)NC(=O)[C@H](CCN)NC(=O)[C@@H](CC(C)C)NC(=O)[C@H](CCCN)NC1=O [Compound 1653] ({CH2CO}-Y(Carboxymethyl)Y(Carboxymethyl)D[Phe(3-Me)]L[Bip][aIle][Orn][dL][Dab]LVSC-NH2; thioether N-14)	33.5

Further compounds by falling IC50, results first:

IC50 [nM]	SMILES
34.5	Cc1cccc(C[C@@H]2NC(=O)[C@H](CC(=O)O)NC(=O)[C@H](Cc3ccc(OCC(=O)O)cc3)NC(=O)[C@H](Cc3ccc(OCC(=O)O)cc3)NC(=O)CSC[C@@H](C(N)=O)NC(=O)[C@H](CO)NC(=O)[C@H](C(C)C)NC(=O)[C@H](CC(C)C)NC(=O)[C@H](CCN)NC(=O)[C@@H](CC(C)C)NC(=O)[C@H](CCCN)NC(=O)[C@H](C(C)C)NC(=O)[C@H](Cc3ccc(-c4ccccc4)cc3)NC(=O)[C@H](CC(C)C)NC2=O)c1 [Compound 1649] ({CH2CO}-Y(Carboxymethyl)Y(Carboxymethyl)D[Phe(3-Me)]L[Bip]V[Orn][dL][Dab]LVSC-NH2; thioether N-14)
30.4	CC(C)[C@@H]1NC(=O)[C@H](Cc2c[nH]c3ccccc23)NC(=O)[C@H](CC(=O)O)NC(=O)[C@H](Cc2ccc(C(=O)O)cc2)NC(=O)[C@H](Cc2ccc(OCC(=O)O)cc2)NC(=O)CSC[C@@H](C(=O)N[C@@H](C)C(N)=O)NC(=O)[C@H]([C@@H](C)O)NC(=O)[C@H](C(C)C)NC(=O)[C@H](CC2CCCCC2)NC(=O)[C@H](CCN)NC(=O)[C@@H](CC2CCCCC2)NC(=O)[C@H](CCCN)NC(=O)[C@H](CCCNC(N)=O)NC(=O)[C@H](Cc2ccc(-c3ccccc3)cc2)NC1=O [Compound 1642] ({CH2CO}-Y(Carboxymethyl)[Phe(4-COOH)]DWV[Bip][Cit][Orn][dCha][Dab][Cha]VTCA-NH2; thioether N-14)
25.7	CC(C)[C@@H]1NC(=O)[C@H](Cc2c[nH]c3ccccc23)NC(=O)[C@H](CC(=O)O)NC(=O)[C@H](Cc2ccc(C(=O)O)cc2)NC(=O)[C@H](Cc2ccncc2)NC(=O)CSC[C@@H](C(=O)N[C@@H](C)C(N)=O)NC(=O)[C@H]([C@@H](C)O)NC(=O)[C@H](C(C)C)NC(=O)[C@H](CC2CCCCC2)NC(=O)[C@H](CCN)NC(=O)[C@@H](CC2CCCCC2)NC(=O)[C@H](CCCN)NC(=O)[C@H](CCCNC(N)=O)NC(=O)[C@H](Cc2ccc(-c3ccccc3)cc2)NC1=O [Compound 1640] ({CH2CO}-[4Pal][Phe(4-COOH)]DWV[Bip][Cit][Orn][dCha][Dab][Cha]VTCA-NH2; thioether N-14)
20.3	CC(C)[C@@H]1NC(=O)[C@H](Cc2c[nH]c3ccccc23)NC(=O)[C@H](CC(=O)O)NC(=O)[C@H](Cc2ccncc2)NC(=O)[C@H](Cc2ccc(OCC(=O)O)cc2)NC(=O)CSC[C@@H](C(=O)N[C@@H](C)C(N)=O)NC(=O)[C@H]([C@@H](C)O)NC(=O)[C@H](C(C)C)NC(=O)[C@H](CC2CCCCC2)NC(=O)[C@H](CCN)NC(=O)[C@@H](CC2CCCCC2)NC(=O)[C@H](CCCN)NC(=O)[C@H](CCCNC(N)=O)NC(=O)[C@H](Cc2ccc(-c3ccccc3)cc2)NC1=O [Compound 1645] ({CH2CO}-Y(Carboxymethyl)[4Pal]DWV[Bip][Cit][Orn][dCha][Dab][Cha]VTCA-NH2; thioether N-14)
20.3	CC(C)C[C@H]1NC(=O)[C@H](CN)NC(=O)[C@H](C(C)C)NC(=O)[C@H](Cc2ccc(-c3ccccc3)cc2)NC(=O)[C@H](C(C)C)NC(=O)[C@H](Cc2c[nH]c3ccccc23)NC(=O)[C@H](CC(=O)O)NC(=O)[C@H](Cc2ccc(OCC(=O)O)cc2)NC(=O)[C@H](CN)NC(=O)CSC[C@@H](C(=O)NCC(N)=O)NC(=O)[C@H](CO)NC(=O)[C@H](C(C)C)NC(=O)[C@H](CC2CCCCC2)NC(=O)[C@H](CC(N)=O)NC1=O [Compound 1652] ({CH2CO}-[Dap]Y(Carboxymethyl)DWV[Bip]V[Dap][dL]N[Cha]VSCG-NH2; thioether N-14)
